*1 amine or outer side, *2 acyl side, *3 side chain or, on linkers, in order; H or OH if unused. Where a SMILES comes first, the peptide text is derived from it. Bridges are numbered along the chain shown (N, C = ends). [ ]: non-standard residue; d: D form. The star is where a group is joined. hPhe(3-Cl-4-CF3) = N[C@@H](CCc1ccc(C(F)(F)F)c(Cl)c1)C(=O)O; NPrPhe(4-CF3) = CCCN[C@@H](Cc1ccc(C(F)(F)F)cc1)C(=O)O; X50 = C=CCN([C@@H](Cc1ccc(C)cc1)C(=O)[*:2])[*:1]; NMeGly(cPent) = CN[C@H](C(=O)O)C1CCCC1; NMeAllylGly = C=CC[C@H](NC)C(=O)O; NMeD = CN[C@@H](CC(=O)O)C(=O)O; NMeL = CN[C@@H](CC(C)C)C(=O)O; Morpholide = C1CN(*)CCO1; Ac5c = NC1(C(=O)O)CCCC1; Aze = O=C(O)[C@@H]1CCN1; Ac4c = NC1(C(=O)O)CCC1; Sar = CNCC(=O)O
Assays:
[1] = biological target: GDP-bound HRAS wild-type protein (Homo sapiens, UniProt P01112); experiment: Binding to HRAS by surface plasmon resonance (SPR), Single Cycle Kinetics; conditions: for HRAS/KRAS (ratio of KD value with respect to HRAS to KD value with respect to KRAS) / HRAS/KRAS (ratio of KD for GDP-bound HRAS wild-type to KD for KRAS): SPR; for HRAS/KRAS (ratio of KD value with respect to HRAS to KD value with respect to KRAS): GDP-bound HRAS wild-type vs GDP-bound KRAS wild-type
GDP-bound HRAS wild-type protein, sequence (P01112 whole entry): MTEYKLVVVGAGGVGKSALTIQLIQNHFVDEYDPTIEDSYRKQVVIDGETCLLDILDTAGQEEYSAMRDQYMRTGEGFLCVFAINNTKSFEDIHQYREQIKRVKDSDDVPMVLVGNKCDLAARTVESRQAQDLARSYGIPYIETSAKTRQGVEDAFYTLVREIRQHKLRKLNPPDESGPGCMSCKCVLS

[2] = biological target: GDP-bound NRAS wild-type protein (Homo sapiens, UniProt P01111); experiment: Binding to NRAS by surface plasmon resonance (SPR), Single Cycle Kinetics; conditions: for NRAS/KRAS (ratio of KD value with respect to NRAS to KD value with respect to KRAS) / NRAS/KRAS (ratio of KD for GDP-bound NRAS wild-type to KD for KRAS): SPR; for NRAS/KRAS (ratio of KD value with respect to NRAS to KD value with respect to KRAS): GDP-bound NRAS wild-type vs GDP-bound KRAS wild-type
GDP-bound NRAS wild-type protein, sequence (P01111 whole entry): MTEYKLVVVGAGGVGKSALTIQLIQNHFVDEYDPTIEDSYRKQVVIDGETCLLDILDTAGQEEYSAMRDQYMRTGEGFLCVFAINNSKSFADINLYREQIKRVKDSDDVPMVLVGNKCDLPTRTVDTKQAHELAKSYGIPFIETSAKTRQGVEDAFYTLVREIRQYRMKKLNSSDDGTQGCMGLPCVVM

## CCC[C@H]1C(=O)N[C@@H]([C@@H](C)CC)C(=O)N2CCC[C@H]2C(=O)N(C)[C@H]2C/C=C\CCN(C2=O)[C@@H](CC2CCCCC2)C(=O)N(C)CC(=O)N[C@@H](CCc2ccc(C(F)(F)F)c(OC)c2)C(=O)N2C[C@H](OCC)C[C@H]2C(=O)N(C)C2(CCC2)C(=O)N(C)[C@@H](C(CC)CC)C(=O)N(C)[C@H](C(=O)N(C)C)CC(=O)N1C [PP2341]
[1]
  HRAS/KRAS (ratio of KD value with respect to HRAS to KD value with respect to KRAS): A (a compound having 10 or more and less than 20 is denoted as A)
[2]
  NRAS/KRAS (ratio of KD value with respect to NRAS to KD value with respect to KRAS): A (a compound having 10 or more and less than 20 is denoted as A)

## C#CC[C@H]1C(=O)N[C@@H]([C@@H](C)CC)C(=O)N(C)CC(=O)N(C)[C@H]2C/C=C\CCN(C2=O)[C@@H](Cc2ccc(C(F)(F)F)cc2)C(=O)N(C)CC(=O)N[C@@H](CCc2cc(F)c(C(F)(F)F)c(F)c2)C(=O)N2C[C@@H](C)C[C@H]2C(=O)NC2(CC(C)(C)C2)C(=O)N(C)[C@@H](C2CCCC2)C(=O)N(C)[C@H](C(=O)N(C)CCC)CC(=O)N1C [PP2076]
[1]
  HRAS/KRAS (ratio of KD value with respect to HRAS to KD value with respect to KRAS): A (a compound having 10 or more and less than 20 is denoted as A)
[2]
  NRAS/KRAS (ratio of KD value with respect to NRAS to KD value with respect to KRAS): A (a compound having 10 or more and less than 20 is denoted as A)

## CCCN1C(=O)CN(C)C(=O)[C@@H]2CCN2C(=O)[C@H]([C@@H](C)CC)NC(=O)[C@H](CC(C)C)N(C)C(=O)C[C@@H](C(=O)N2CCOCC2)N(C)C(=O)[C@H](C2CCCC2)N(C)C(=O)C2(CCC2)NC(=O)[C@@H]2CCCN2C(=O)[C@H](CCc2ccc(C(F)(F)F)c(Cl)c2)NC(=O)CN(C)C(=O)[C@@H]1Cc1ccc(C(F)(F)F)cc1 [PP0402] ([NMeL]I[Aze][Sar][NPrPhe(4-CF3)][Sar][hPhe(3-Cl-4-CF3)]P[Ac4c][NMeGly(cPent)][NMeD]-Morpholide; lactam N-11)
[1]; KD ratio HRAS/KRAS
  HRAS/KRAS (ratio of KD for GDP-bound HRAS wild-type to KD for KRAS): C (A compound having a KD ratio of 0.1 or more and less than 3 is denoted as C)
[2]; KD ratio NRAS/KRAS
  NRAS/KRAS (ratio of KD for GDP-bound NRAS wild-type to KD for KRAS): B (a compound having 3 or more and less than 10 is denoted as B)

## CCO[C@@H]1C[C@H]2C(=O)NC3(CCC3)C(=O)N(C)[C@@H](C3CCCC3)C(=O)N(C)[C@H](C(=O)N3CCOCC3)CC(=O)N(C)[C@@H](COC)C(=O)N[C@@H]([C@@H](C)CC)C(=O)N3CC[C@H]3C(=O)N(C)[C@H]3CCCCCN(C3=O)[C@@H](Cc3ccc(C(F)(F)F)cc3)C(=O)N(C)CC(=O)N[C@@H](CCc3cc(F)c(C(F)(F)F)c(F)c3)C(=O)N2C1 [PP0863]
[1]; KD ratio
  HRAS/KRAS (ratio of KD value with respect to HRAS to KD value with respect to KRAS): B (a compound having 3 or more and less than 10 is denoted as B)
[2]; KD ratio
  NRAS/KRAS (ratio of KD value with respect to NRAS to KD value with respect to KRAS): B (a compound having 3 or more and less than 10 is denoted as B)

## C=CC[C@H]1C(=O)N(CC=C)[C@@H](Cc2ccc(C)cc2)C(=O)N(C)CC(=O)N[C@@H](CCc2ccc(C(F)(F)F)c(Cl)c2)C(=O)N2CCC[C@H]2C(=O)NC2(CCCC2)C(=O)N(C)[C@@H](C2CCCC2)C(=O)N(C)[C@H](C(=O)N2CCOCC2)CC(=O)N(C)[C@@H](CC(C)C)C(=O)N[C@@H]([C@@H](C)CC)C(=O)N(C)CC(=O)N1C [PP0139] ([NMeL]I[Sar][NMeAllylGly][X50][Sar][hPhe(3-Cl-4-CF3)]P[Ac5c][NMeGly(cPent)][NMeD]-Morpholide; lactam N-11)
[1]; KD ratio HRAS/KRAS
  HRAS/KRAS (ratio of KD for GDP-bound HRAS wild-type to KD for KRAS): C (A compound having a KD ratio of 0.1 or more and less than 3 is denoted as C)
[2]; KD ratio NRAS/KRAS
  NRAS/KRAS (ratio of KD for GDP-bound NRAS wild-type to KD for KRAS): C (A compound having a KD ratio of 0.1 or more and less than 3 is denoted as C)

## CCO[C@@H]1C[C@H]2C(=O)NC3(CC(C)(C)C3)C(=O)N(C)[C@@H](C(CC)CC)C(=O)N(C)[C@H](C(=O)N3CCCC3)CC(=O)N(C)[C@@H](COC)C(=O)N[C@@H]([C@@H](C)CC)C(=O)N(C)CC(=O)N(C)[C@H]3C/C=C\CCN(C3=O)[C@@H](Cc3ccc(C(F)(F)F)cc3)C(=O)N(C)CC(=O)N[C@@H](CCc3ccc(C(F)(F)F)c(OC)c3)C(=O)N2C1 [PP2159]
[1]
  HRAS/KRAS (ratio of KD value with respect to HRAS to KD value with respect to KRAS): A (a compound having 10 or more and less than 20 is denoted as A)
[2]
  NRAS/KRAS (ratio of KD value with respect to NRAS to KD value with respect to KRAS): AA (a compound having 20 or more is denoted as AA)

## CCO[C@@H]1C[C@H]2C(=O)NC3(CC(C)(C)C3)C(=O)N(C)[C@@H](C3CCCC3)C(=O)N(C)[C@H](C(=O)N3CCCC3)CC(=O)N(C)[C@H]3CCC/C=C/c4ccc(cc4)C[C@@H](C(=O)N(C)CC(=O)N[C@@H](CCc4cc(F)c(C(F)(F)F)c(F)c4)C(=O)N2C1)N1CC/C=C\C[C@@H](C1=O)N(C)C(=O)CN(C1CC1)C(=O)[C@H]([C@@H](C)CC)NC3=O [PP2583]
[1]; KD ratio HRAS/KRAS, class symbols
  HRAS/KRAS (ratio of KD value with respect to GDP-bound HRAS wild-type protein to KD value with respect to KRAS): A (a compound having 10 or more and less than 20 is denoted as A)
[2]; KD ratio NRAS/KRAS, class symbols
  NRAS/KRAS (ratio of KD value with respect to GDP-bound NRAS wild-type protein to KD value with respect to KRAS): A (a compound having 10 or more and less than 20 is denoted as A)
